Legend:
Experiment in all cases: KinomeScan kinase panel, single concentration 10 µM
Assay type in all cases: binding
KinomeScan kinase panel [1] = target: T1, KinomeScan kinase panel (Homo sapiens, UniProt O75385); conditions: kinase ULK1; 10 µM
T1 construct: purchased DiscoveRx (KinomeScan)
T1 sequence (O75385 1-1050): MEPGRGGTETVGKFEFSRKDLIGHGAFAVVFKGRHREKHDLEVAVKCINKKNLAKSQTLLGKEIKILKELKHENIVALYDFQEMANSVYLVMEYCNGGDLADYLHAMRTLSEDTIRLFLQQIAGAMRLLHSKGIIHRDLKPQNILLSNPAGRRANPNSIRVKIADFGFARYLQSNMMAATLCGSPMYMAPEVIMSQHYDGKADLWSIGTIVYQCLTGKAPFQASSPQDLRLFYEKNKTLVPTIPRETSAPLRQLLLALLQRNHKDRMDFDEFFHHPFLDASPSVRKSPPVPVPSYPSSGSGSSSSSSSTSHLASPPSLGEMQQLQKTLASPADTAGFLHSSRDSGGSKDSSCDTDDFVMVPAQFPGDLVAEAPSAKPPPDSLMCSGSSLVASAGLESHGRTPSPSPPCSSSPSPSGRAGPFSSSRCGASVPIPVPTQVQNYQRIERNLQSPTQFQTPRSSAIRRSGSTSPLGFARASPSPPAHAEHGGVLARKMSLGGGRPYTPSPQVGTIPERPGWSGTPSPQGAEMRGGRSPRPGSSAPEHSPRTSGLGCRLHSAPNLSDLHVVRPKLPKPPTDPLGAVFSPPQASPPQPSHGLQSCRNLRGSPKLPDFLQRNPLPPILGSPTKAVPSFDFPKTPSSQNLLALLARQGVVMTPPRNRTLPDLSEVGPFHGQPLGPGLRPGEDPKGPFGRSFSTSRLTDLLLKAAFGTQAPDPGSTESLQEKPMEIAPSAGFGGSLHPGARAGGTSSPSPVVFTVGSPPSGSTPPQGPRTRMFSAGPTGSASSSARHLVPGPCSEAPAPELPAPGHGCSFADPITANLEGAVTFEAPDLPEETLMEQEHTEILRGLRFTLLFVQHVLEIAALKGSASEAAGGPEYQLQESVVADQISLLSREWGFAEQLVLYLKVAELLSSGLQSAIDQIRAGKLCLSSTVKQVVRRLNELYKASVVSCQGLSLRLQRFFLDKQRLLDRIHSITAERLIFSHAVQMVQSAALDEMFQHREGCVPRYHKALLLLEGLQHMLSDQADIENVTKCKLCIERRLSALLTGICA

KinomeScan kinase panel [2] = target: T2, KinomeScan kinase panel (Homo sapiens, UniProt P19784); conditions: CSNK2A2, 10 µM; read-out: score (%)
T2 construct: purchased DiscoveRx (KinomeScan)

KinomeScan kinase panel [3] = target: T3, KinomeScan kinase panel (Homo sapiens, UniProt P31749); conditions: AKT1, 10 µM; read-out: score (%)
T3 construct: purchased DiscoveRx (KinomeScan)

KinomeScan kinase panel [4] = target: T4, KinomeScan kinase panel (Homo sapiens, UniProt P36896); conditions: ACVR1B, 10 µM; read-out: score (%)
T4 construct: purchased DiscoveRx (KinomeScan)
T4 sequence (P36896 24-505): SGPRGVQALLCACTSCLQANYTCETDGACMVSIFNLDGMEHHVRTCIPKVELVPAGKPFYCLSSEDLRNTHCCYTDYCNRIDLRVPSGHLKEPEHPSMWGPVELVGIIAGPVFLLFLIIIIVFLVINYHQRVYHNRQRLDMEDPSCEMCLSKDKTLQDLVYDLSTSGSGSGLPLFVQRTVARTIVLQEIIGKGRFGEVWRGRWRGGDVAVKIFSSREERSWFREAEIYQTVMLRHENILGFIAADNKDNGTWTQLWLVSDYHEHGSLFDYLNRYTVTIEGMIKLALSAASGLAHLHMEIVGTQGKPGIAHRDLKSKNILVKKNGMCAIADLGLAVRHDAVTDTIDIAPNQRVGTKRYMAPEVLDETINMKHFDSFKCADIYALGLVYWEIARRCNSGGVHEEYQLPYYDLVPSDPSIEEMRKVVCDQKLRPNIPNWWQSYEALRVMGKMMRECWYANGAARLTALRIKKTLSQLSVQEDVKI

KinomeScan kinase panel [5] = target: T5, KinomeScan kinase panel (Homo sapiens, UniProt P43405); conditions: 10 µM
T5 construct: purchased DiscoveRx (KinomeScan)

KinomeScan kinase panel [6] = target: T6, KinomeScan kinase panel (Homo sapiens, UniProt P49336); conditions: CDK8, 10 µM
T6 construct: purchased DiscoveRx (KinomeScan)

KinomeScan kinase panel [7] = target: T7, KinomeScan kinase panel (Homo sapiens, UniProt Q99640); conditions: PKMYT1, 10 µM
T7 construct: purchased DiscoveRx (KinomeScan)
T7 sequence (Q99640 1-499): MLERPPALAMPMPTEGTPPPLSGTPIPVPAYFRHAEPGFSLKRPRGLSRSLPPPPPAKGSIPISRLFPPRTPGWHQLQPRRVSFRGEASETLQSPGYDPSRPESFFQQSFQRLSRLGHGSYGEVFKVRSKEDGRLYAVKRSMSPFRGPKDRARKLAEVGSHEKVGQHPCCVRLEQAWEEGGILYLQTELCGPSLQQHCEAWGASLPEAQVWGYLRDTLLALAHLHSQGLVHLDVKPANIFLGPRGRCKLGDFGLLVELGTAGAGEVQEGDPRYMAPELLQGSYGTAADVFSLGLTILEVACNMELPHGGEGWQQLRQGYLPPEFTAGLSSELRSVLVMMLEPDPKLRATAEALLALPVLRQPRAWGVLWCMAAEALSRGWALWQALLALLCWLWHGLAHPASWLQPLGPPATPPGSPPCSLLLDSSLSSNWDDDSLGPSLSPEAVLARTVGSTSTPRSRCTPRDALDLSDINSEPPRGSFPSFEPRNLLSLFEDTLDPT

T2 sequence (P19784 whole entry): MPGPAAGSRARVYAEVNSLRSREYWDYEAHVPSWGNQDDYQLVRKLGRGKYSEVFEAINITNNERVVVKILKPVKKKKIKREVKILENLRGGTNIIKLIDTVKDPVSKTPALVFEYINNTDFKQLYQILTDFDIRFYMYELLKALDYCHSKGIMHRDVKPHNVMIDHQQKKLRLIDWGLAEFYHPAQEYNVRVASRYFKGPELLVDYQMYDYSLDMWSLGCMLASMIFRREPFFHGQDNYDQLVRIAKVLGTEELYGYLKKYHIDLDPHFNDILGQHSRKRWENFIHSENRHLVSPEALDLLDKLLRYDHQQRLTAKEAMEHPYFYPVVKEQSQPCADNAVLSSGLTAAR
T3 sequence (P31749 whole entry): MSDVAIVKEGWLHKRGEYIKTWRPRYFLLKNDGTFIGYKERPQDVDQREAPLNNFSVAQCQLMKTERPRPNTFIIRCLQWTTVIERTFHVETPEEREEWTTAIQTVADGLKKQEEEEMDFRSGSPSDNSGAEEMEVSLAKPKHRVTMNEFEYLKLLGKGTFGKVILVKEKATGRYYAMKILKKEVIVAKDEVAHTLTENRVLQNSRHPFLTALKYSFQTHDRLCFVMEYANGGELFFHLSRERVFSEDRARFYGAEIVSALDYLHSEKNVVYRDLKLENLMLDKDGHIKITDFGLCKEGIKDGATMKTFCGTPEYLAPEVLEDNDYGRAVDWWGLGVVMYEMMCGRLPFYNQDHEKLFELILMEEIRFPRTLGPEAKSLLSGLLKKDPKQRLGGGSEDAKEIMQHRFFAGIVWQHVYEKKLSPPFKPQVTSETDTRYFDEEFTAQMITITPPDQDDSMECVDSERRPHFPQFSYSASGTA
T6 sequence (P49336 whole entry): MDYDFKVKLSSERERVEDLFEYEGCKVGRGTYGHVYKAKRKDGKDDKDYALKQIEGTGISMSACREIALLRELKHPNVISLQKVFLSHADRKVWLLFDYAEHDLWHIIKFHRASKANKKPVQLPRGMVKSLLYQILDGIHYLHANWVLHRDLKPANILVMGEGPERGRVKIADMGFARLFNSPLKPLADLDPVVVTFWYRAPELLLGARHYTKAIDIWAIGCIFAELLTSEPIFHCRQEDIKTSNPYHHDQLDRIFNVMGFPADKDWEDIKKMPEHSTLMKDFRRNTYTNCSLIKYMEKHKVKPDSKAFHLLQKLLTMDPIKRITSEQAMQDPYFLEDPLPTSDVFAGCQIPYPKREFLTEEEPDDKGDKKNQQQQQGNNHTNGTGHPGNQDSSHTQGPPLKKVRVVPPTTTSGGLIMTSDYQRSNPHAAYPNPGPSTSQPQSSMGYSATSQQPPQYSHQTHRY

| score (%) (KinomeScan kinase panel [5]; SYK) | SMILES | score (%) (KinomeScan kinase panel [1]) | remaining binding at 10 µM (KinomeScan kinase panel [2]) [%] | remaining binding at 10 µM (KinomeScan kinase panel [3]) [%] | remaining binding at 10 µM (KinomeScan kinase panel [4]) [%] | score (%) (KinomeScan kinase panel [5]; kinase SYK) | score (%) (KinomeScan kinase panel [6]) | score (%) (KinomeScan kinase panel [7]) |
| --- | --- | --- | --- | --- | --- | --- | --- | --- |
| – | CCN1CCN(Cc2ccc(NC(=O)c3ccc(C)c(C#Cc4cccnc4)c3)cc2C(F)(F)F)CC1 [XMD15-44] | 24% | > 30 | > 30 | > 30 | 13 | 8.2 | 85% |
| 1.8 | CCN1CCN(Cc2ccc(NC(=O)c3ccc(C)c(/C=C/c4cnc5[nH]ccc5c4Cl)c3)cc2C(F)(F)F)CC1 [HG-6-63-01, (E)-3-(2-(4-chloro-1H-pyrrolo[2,3-b]pyridin-5-yl)vinyl)-N-(4-((4-ethylpiperazin-1-yl)methyl)-3-(trifluoromethyl)phenyl)-4-methylbenzamide] | 8.7% | > 30 | > 30 | > 30 | – | 9.6 | nb (Hits values higher than 30% were considered negative (no binding: nb)) |
| – | CCN1CCN(Cc2ccc(NC(=O)c3ccc(C)c(NC(=O)c4cncc(-c5cccs5)c4)c3)cc2C(F)(F)F)CC1 [ALW-II-41-27] | nb (Hits values higher than 30% were considered negative (no binding: nb)) | > 30 | 4.4 | > 30 | 4.2 | 20 | nb (Hits values higher than 30% were considered negative (no binding: nb)) |

Source: paper PMC4457528, “Identification of Novel Small Molecule Inhibitors of Oncogenic RET Kinase” (PLoS ONE, 2015)
